ChEMBL document CHEMBL2146411, “Discovery of 3H-imidazo[4,5-c]quinolin-4(5H)-ones as potent and selective dipeptidyl peptidase IV (DPP-4) inhibitors” (Bioorg Med Chem, 2012)

Biological target: Dipeptidyl peptidase 4 (Bos taurus, UniProt P81425)
Sequence (P81425 whole entry): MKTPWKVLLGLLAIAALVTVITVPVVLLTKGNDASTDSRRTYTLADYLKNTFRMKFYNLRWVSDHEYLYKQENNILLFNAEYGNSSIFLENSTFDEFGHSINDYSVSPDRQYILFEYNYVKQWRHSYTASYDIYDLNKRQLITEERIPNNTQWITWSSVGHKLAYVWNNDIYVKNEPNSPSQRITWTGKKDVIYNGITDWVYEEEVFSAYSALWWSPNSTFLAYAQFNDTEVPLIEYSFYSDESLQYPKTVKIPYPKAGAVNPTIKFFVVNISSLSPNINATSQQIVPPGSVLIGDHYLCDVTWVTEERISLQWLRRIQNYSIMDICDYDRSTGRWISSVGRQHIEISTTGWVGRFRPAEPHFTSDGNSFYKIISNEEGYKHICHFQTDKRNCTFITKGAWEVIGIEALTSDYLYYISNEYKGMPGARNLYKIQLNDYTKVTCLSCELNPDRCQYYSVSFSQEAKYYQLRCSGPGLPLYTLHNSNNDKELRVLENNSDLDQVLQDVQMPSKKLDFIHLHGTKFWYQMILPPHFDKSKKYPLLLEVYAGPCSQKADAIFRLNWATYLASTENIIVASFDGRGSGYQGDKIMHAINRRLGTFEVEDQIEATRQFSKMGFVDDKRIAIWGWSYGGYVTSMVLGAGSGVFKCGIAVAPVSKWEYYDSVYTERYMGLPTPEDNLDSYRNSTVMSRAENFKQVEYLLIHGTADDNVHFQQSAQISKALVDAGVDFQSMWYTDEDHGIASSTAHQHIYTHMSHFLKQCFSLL
Description: Inhibition of bovine DPP4 by HTS assay

- IC50: 676 nM
SMILES: CC(C)=CCn1c(N2CCNCC2)nc2c1c(=O)[nH]c(=O)n2C
